Measurements: US20230035892A1, “METHODS AND COMPOSITIONS FOR TREATING CANCER” (Flagship Pioneering Innovations V, Inc., priority 2019, published 2023)

Assays:
Format in all cases: cell-based
[1] = tested on: sgGrk2-expressing PAXF1657 cells; assay: Colony formation assay in sgGrk2-expressing cells (target specificity)
Experimental: To assess the target specificity of the GRK2 small molecule antagonist of Formula III-26, sgGRK2-expressing cells were treated with the compound of Formula III-26. If GRK2 knockout is complete and the compound of Formula III-26 inhibits only GRK2, the addition of the compound of Formula III-26 should not induce any additional growth defect compared to sgRNA KO alone. […] This is potentially due to the lower GRK2 knockout efficiency that can be achieved in PAXF1657 compared to Miapaca2, as shown in Table 16.

[2] = tested on: PAXF1657 control empty vector; assay: 7-day CellTiter-Glo anti-proliferative assay; conditions: PAXF1657, sgNTC, pReceiver-empty vector, 5 or 10 point dose curve
Experimental: (§1) Cell lines were seeded into tissue culture treated, white-walled, 96-well plates at a density of 500 cells/well in RPM11640 media supplemented with 10% H.I. FBS and penicillin/streptomycin. Plates were incubated overnight at 37° C., 5% CO2 to allow cells to adhere to the wells. GRK2 small molecule antagonists were added to the cells using a ten-point or five-point dilution series with a final concentration ranging from […] in 0.1% DMSO. At the time of compound addition, a set of plates that were not treated with compounds were collected and cell viability was measured using CellTiter-Glo (Promega). CellTiter-Glo reagent was added to the plates and luminescence was measured using a Biotek Synergy plate reader. The compound treated cells were incubated for 3 days at 37° C., 5% CO2. The media was then aspirated from each well and replaced with fresh media containing GRK2 small molecule antagonists. The compound treated cells were then incubated for another 4 days at 37° C., 5% CO2 and cell viability was assessed at the end of the 7-day compound treatment by CellTiterGlo.

[3] = tested on: PAXF1657 stably overexpressing GRK2 cDNA; assay: 7-day CellTiter-Glo anti-proliferative assay; conditions: PAXF1657, sgNTC, pReceiver-GRK2, 5 or 10 point dose curve
Experimental: as §1

[4] = PAXF1657, 1 μM, sgGRK2-2 (SEQ ID NO: 3)
[5] = PAXF1657, 1 μM, sgGRK2-3 (SEQ ID NO: 4)
[6] = PAXF1657, 3 μM, sgGRK2-2 (SEQ ID NO: 3)
[7] = PAXF1657, 3 μM, sgGRK2-3 (SEQ ID NO: 4)
[8] = 168 h, read-out: Maximum % Growth inhibition relative to DMSO, geometric mean

Structure (SMILES): Cn1c(CNc2cccc(C(=O)NCc3ccccc3C(F)(F)F)c2)nnc1-c1ccncc1 [Compound of Formula III-26]
- Difference between rel +dox and −dox signal [1, 4]: 0.45
- Rel +dox [1, 4]: 0.44
- Rel −dox [1, 4]: 0.89
- Difference between rel +dox and −dox signal [1, 5]: 0.37
- Rel +dox [1, 5]: 0.40
- Rel −dox [1, 5]: 0.78
- Difference between rel +dox and −dox signal ([1]; PAXF1657, 1 μM, sgGRK2-pooled): 0.29
- Rel +dox ([1]; PAXF1657, 1 μM, sgGRK2-pooled): 0.49
- Rel −dox ([1]; PAXF1657, 1 μM, sgGRK2-pooled): 0.78
- Difference between rel +dox and −dox signal ([1]; PAXF1657, 1 μM, sgNTC): −0.04
- Rel +dox ([1]; PAXF1657, 1 μM, sgNTC): 0.78
- Rel −dox ([1]; PAXF1657, 1 μM, sgNTC): 0.73
- Difference between rel +dox and −dox signal [1, 6]: 0.26
- Rel +dox [1, 6]: 0.41
- Rel −dox [1, 6]: 0.67
- Difference between rel +dox and −dox signal [1, 7]: 0.32
- Rel +dox [1, 7]: 0.22
- Rel −dox [1, 7]: 0.55
- Difference between rel +dox and −dox signal ([1]; PAXF1657, 3 μM, sgGRK2-pooled): 0.11
- Rel +dox ([1]; PAXF1657, 3 μM, sgGRK2-pooled): 0.48
- Rel −dox ([1]; PAXF1657, 3 μM, sgGRK2-pooled): 0.59
- Difference between rel +dox and −dox signal ([1]; PAXF1657, 3 μM, sgNTC): 0.01
- Rel +dox ([1]; PAXF1657, 3 μM, sgNTC): 0.56
- Rel −dox ([1]; PAXF1657, 3 μM, sgNTC): 0.57
- Emax [2, 8]: 61%
- GI50 ([2]; read-out: GI50, geometric mean): 9.49 µM
- Emax [3, 8]: 24.8%
- GI50 ([3]; read-out: GI50, geometric mean): > 10 µM
